Results: US12576099B2, “Ribose-modified cap analog and use thereof” (Beijing Youcare Kechuang Pharmaceutical Technology Co., Ltd., priority 2024, dated 2026)

Tests used:
T7 RNA polymerase = T7 RNA polymerase (Escherichia phage T7, UniProt P00573); test: In vitro transcription yield of mRNA using cap analogs; format: biochemical; details: for Yield per unit template: in vitro transcription, 1 μg DNA template, 37° C., 2 hours
Method in brief: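 Linearized plasmid template transcribed by T7 RNA polymerase with NTPs, cap analog, nuclease inhibitor and inorganic pyrophosphatase for 2 h at 37° C., then DNase I 30 min at 37° C. mRNA was ethanol-washed, redissolved and purified, and yield recorded.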

HEK293T cells = test: Translation efficiency of different capped luciferase mRNAs; format: cell-based; details: for Relative fluorescence intensity: HEK293T, 0.5 μg mRNA per well, 24 hours, proportional to translation efficiency; for Multiple of m6A (relative fluorescence intensity): relative to m6A
Method in brief: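 HEK293T cells were transfected with 0.5 μg capped luciferase mRNA per well (Lipofectamine MessengerMAX) and cultured 24 h at 37 °C. Lysates were mixed with Dual-Lumi II reagent for 5 min at about 25 °C; luminescence served as the measure of translation efficiency.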

BALB/C mice = test: In vivo imaging of Fluc-mRNA LNP expression in mice
Method: The LNP preparation containing 5 μg of cap analog-transcribed Fluc-mRNA was intramuscularly injected into female BALB/C mice aged 4 to 6 weeks and weighing 17 to 19 g. At specific time points after administration (6 hours, 12 hours, 24 hours, 48 hours, 96 hours, and 168 hours), the mice were intraperitoneally injected with fluorescence imaging substrate. The mice were then allowed to move freely for 5 minutes, followed by detection of the total radiation intensity of the protein expressed by LNP-carrying mRNA in the mice using an IVIS Spectrum small-animal in vivo imaging system (corresponding to the amount of protein expression).
In the in vivo imaging experiments in mice, the multiple of the total radiation intensity for each group of mice relative to the m6A group is shown in Table 8 (where the total radiation intensity is represented as the given value×10^8 p/s).

[1] = 6 h, 5 μg Fluc-mRNA LNP intramuscular, mice
[2] = 12 h, 5 μg Fluc-mRNA LNP intramuscular, mice
[3] = 24 h, 5 μg Fluc-mRNA LNP intramuscular, mice
[4] = 48 h, 5 μg Fluc-mRNA LNP intramuscular, mice
[5] = 96 h, 5 μg Fluc-mRNA LNP intramuscular, mice
[6] = 168 h, 5 μg Fluc-mRNA LNP intramuscular, mice

Chain of T7 RNA polymerase (P00573 whole entry): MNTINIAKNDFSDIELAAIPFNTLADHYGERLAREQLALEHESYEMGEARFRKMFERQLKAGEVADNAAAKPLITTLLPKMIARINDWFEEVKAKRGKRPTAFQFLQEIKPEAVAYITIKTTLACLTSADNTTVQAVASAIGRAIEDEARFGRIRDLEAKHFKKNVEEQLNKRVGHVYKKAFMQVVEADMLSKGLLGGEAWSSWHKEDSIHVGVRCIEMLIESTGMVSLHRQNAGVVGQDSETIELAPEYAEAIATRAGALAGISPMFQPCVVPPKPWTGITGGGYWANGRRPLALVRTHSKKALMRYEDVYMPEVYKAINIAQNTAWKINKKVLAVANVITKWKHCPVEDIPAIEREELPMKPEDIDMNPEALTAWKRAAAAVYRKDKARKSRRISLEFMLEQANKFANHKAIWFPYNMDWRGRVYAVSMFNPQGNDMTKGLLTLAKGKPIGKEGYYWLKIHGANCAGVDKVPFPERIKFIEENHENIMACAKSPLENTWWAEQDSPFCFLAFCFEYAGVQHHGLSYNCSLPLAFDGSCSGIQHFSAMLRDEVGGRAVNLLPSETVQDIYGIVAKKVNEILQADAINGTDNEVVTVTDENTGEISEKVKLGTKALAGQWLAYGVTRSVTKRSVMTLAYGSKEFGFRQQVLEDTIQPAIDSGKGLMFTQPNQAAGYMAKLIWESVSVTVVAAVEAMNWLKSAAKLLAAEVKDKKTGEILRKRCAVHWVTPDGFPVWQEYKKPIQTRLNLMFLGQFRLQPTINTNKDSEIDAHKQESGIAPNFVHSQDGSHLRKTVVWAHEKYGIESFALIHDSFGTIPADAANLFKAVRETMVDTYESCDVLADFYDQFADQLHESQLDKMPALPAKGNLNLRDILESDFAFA

SMILES | Yield per unit template (T7 RNA polymerase) [µg] | Increase relative to 5227 (in vitro transcription yield) (T7 RNA polymerase) [%] | Relative fluorescence intensity (HEK293T cells) | Multiple of m6A (relative fluorescence intensity) (HEK293T cells) | Multiple of total radiation intensity relative to m6A (BALB/C mice; 6 h) | Total radiation intensity (BALB/C mice; [1]) | Multiple of total radiation intensity relative to m6A (BALB/C mice; 12 h) | Total radiation intensity (BALB/C mice; [2]) | Multiple of total radiation intensity relative to m6A (BALB/C mice; 24 h) | Total radiation intensity (BALB/C mice; [3]) | Multiple of total radiation intensity relative to m6A (BALB/C mice; 48 h) | Total radiation intensity (BALB/C mice; [4]) | Multiple of total radiation intensity relative to m6A (BALB/C mice; 96 h) | Total radiation intensity (BALB/C mice; [5]) | Total radiation intensity (BALB/C mice; [6]) | other results
COC(C)[C@H]1[C@@H](O)[C@H]([n+]2cn(C)c3c(=O)[nH]c(N)nc32)O[C@@H]1COP(=O)(O)OP(=O)(O)OP(=O)(O)OC[C@H]1O[C@@H](n2cnc3c(N)ncnc32)[C@H](OC)[C@@H]1OP(=O)(O)OC[C@H]1O[C@@H](n2cnc3c(=O)[nH]c(N)nc32)[C@H](O)[C@@H]1O (some centres unmarked) [YK-CAP-107] | 170.7 | 27.2 | 1.62 | 4.3 | 3.4 | 8.09 ×108 p/s | 3.2 | 6.87 ×108 p/s | 2.9 | 1.92 ×108 p/s | 1.2 | 0.60 ×108 p/s | 2.5 | 0.11 ×108 p/s | 0.03 ×108 p/s | –
COC[C@]1(COP(=O)(O)OP(=O)(O)OP(=O)(O)OC[C@H]2O[C@@H](n3cnc4c(N)ncnc43)[C@H](OC)[C@@H]2OP(=O)(O)OC[C@H]2O[C@@H](n3cnc4c(=O)[nH]c(N)nc43)[C@H](O)[C@@H]2O)O[C@@H]([n+]2cn(C)c3c(=O)[nH]c(N)nc32)[C@H](O)[C@@H]1O [YK-CAP-117] | 153.2 | 14.2 | 1.82 | 4.8 | 3.8 | 8.99 ×108 p/s | 3.8 | 8.00 ×108 p/s | 3.2 | 2.08 ×108 p/s | 3.3 | 1.73 ×108 p/s | 0.9 | 0.35 ×108 p/s | 0.02 ×108 p/s | –
CO[C@@H]1[C@H](OP(=O)(O)OC[C@H]2O[C@@H](n3cnc4c(=O)[nH]c(N)nc43)[C@H](O)[C@@H]2O)[C@@H](COP(=O)(O)OP(=O)(O)OP(=O)(O)OC[C@H]2O[C@@H]([n+]3cn(C)c4c(=O)[nH]c(N)nc43)[C@H](O)[C@@H]2C(C)NC(C)=O)O[C@H]1n1cnc2c(N)ncnc21 (some centres unmarked) [YK-CAP-108] | 151.8 | 13.1 | 1.43 | 3.8 | 2.7 | 6.42 ×108 p/s | 2.8 | 6.03 ×108 p/s | 2.6 | 1.70 ×108 p/s | 2.0 | 1.04 ×108 p/s | 1.3 | 0.19 ×108 p/s | 0.02 ×108 p/s | –
CCN(CC)C(=O)[C@H]1[C@@H](O)[C@H]([n+]2cn(C)c3c(=O)[nH]c(N)nc32)O[C@@H]1COP(=O)(O)OP(=O)(O)OP(=O)(O)OC[C@H]1O[C@@H](n2cnc3c(N)ncnc32)[C@H](OC)[C@@H]1OP(=O)(O)OC[C@H]1O[C@@H](n2cnc3c(=O)[nH]c(N)nc32)[C@H](O)[C@@H]1O [YK-CAP-111] | 173.5 | 29.3 | 2.12 | 5.6 | 3.7 | 8.61 ×108 p/s | 4.4 | 9.34 ×108 p/s | 4.2 | 2.75 ×108 p/s | 3.8 | 1.95 ×108 p/s | 1.1 | 0.27 ×108 p/s | 0.03 ×108 p/s | Transcription yield, times that of YK-CAP-101 (T7 RNA polymerase; relative to YK-CAP-101): 5.3 times; Transcription yield, times that of YK-CAP-102 (T7 RNA polymerase; relative to YK-CAP-102): 3.9 times; Transcription yield, times that of YK-CAP-103 (T7 RNA polymerase; relative to YK-CAP-103): 2.0 times; Transcription yield, times that of YK-CAP-104 (T7 RNA polymerase; relative to YK-CAP-104): 2.4 times; Transcription yield, times that of YK-CAP-105 (T7 RNA polymerase; relative to YK-CAP-105): 2.1 times; In vitro transcription yield of mRNA higher than that of compound 14 (T7 RNA polymerase; relative to compound 14): 40.8%; Relative fluorescence intensity, times that of HN3002 (HEK293T cells; relative to HN3002): 1.9 times; Relative fluorescence intensity, times that of N-7113 (HEK293T cells; relative to N-7113): 2.1 times; Relative fluorescence intensity (translation efficiency), times that of YK-CAP-101 (HEK293T cells; relative to YK-CAP-101): 9.6 times; Relative fluorescence intensity, times that of YK-CAP-102 (HEK293T cells; relative to YK-CAP-102): 6.2 times; Relative fluorescence intensity, times that of YK-CAP-103 (HEK293T cells; relative to YK-CAP-103): 2.8 times; Relative fluorescence intensity, times that of YK-CAP-104 (HEK293T cells; relative to YK-CAP-104): 2.6 times; Relative fluorescence intensity, times that of YK-CAP-105 (HEK293T cells; relative to YK-CAP-105): 2.9 times; Relative fluorescence intensity, times that of compound 14 (HEK293T cells; relative to compound 14): 1.9 times; Total radiation intensity (BALB/C mice; at 12 hours): 9.34 ×10^8 p/s; Total radiation intensity, times that of N-7113 (BALB/C mice; at 12 hours): 2.2 times; Total radiation intensity, times that of YK-CAP-101 (BALB/C mice; at 12 hours): 9.7 times; Total radiation intensity (BALB/C mice; at 48 hours): 1.95 ×10^8 p/s; Total radiation intensity, times that of N-7113 (BALB/C mice; at 48 hours): 4.0 times; Total radiation intensity, times that of YK-CAP-101 (BALB/C mice; at 48 hours): 10.3 times
CO[C@@H]1[C@H](OP(=O)(O)OC[C@H]2O[C@@H](n3cnc4c(=O)[nH]c(N)nc43)[C@H](O)[C@@H]2O)[C@@H](COP(=O)(O)OP(=O)(O)OP(=O)(O)OC[C@@]2(OC)O[C@@H]([n+]3cn(C)c4c(=O)[nH]c(N)nc43)[C@H](O)[C@@H]2O)O[C@H]1n1cnc2c(N)ncnc21 [compound 5227, reference compound] | 134.2 | 0 | 0.82 | 2.2 | 1.0 | 2.38 ×108 p/s | 0.7 | 1.45 ×108 p/s | 0.8 | 0.53 ×108 p/s | 0.9 | 0.48 ×108 p/s | 0.9 | 0.07 ×108 p/s | 0.02 ×108 p/s | –
